# Assay results: PubChem BioAssay AID1549 (Sanford-Burnham Center for Chemical Genomics, 2009)
# The source made the active and inactive calls. How the calls were made is not given here.
# Target: Influenza A virus M2 proton channel (A/TW/4845/1999 H1N1)
# Assay: NMR binding screen, influenza A virus M2 proton channel, Kd (AID 1549)
# Details: M2 protein
row,SMILES,Kd
1,O=C(O)CCC(=O)Nc1ccccn1,> 4 mM (inactive)
2,NCc1nc2ccccc2s1,> 4 mM (inactive)
3,Cn1c(CO)nc2cc(N)ccc21,> 4 mM (inactive)
4,Cn1c(CO)nc2ccccc21,> 4 mM (inactive)
5,COc1ccc(-c2coc3c(OC)c(OC)cc(OC)c3c2=O)cc1,> 4 mM (inactive)
6,CNC(=O)Oc1ccc2c(c1)[C@]1(C)CCN(C)[C@@H]1N2C,> 4 mM (inactive)
7,COc1cccc(OC)c1C(=O)N1CCOCC1,> 4 mM (inactive)
8,Cc1cc(NC(=O)CSc2nncn2C)no1,> 4 mM (inactive)
9,Clc1ccc(-n2ccnc2)nn1,> 4 mM (inactive)
10,CC(=O)O[C@H]1CC[C@@]2(C)C(CC[C@]3(C)C2CC=C2C4CC(C)(C)CC[C@]4(C)CC[C@]23C)C1(C)C (stereo partly specified),> 4 mM (inactive)
11,NC(=O)CSc1nnnn1-c1ccccc1,> 4 mM (inactive)
12,CCOC(=O)c1cnc2sccn2c1=O,> 4 mM (inactive)
13,Cc1ccccc1NC(=O)CC1NCCNC1=O (stereo unspecified),> 4 mM (inactive)
14,COc1cc2c(cc1OC)[C@@H]1C(=O)c3ccc(OC)c(CC=C(C)C)c3O[C@@H]1CO2,> 4 mM (inactive)
15,COc1cccc(N2CCN(C(=O)c3cccnc3)CC2)c1,> 4 mM (inactive)
16,CCOC(=O)CNc1ncnc2c1nnn2CC,> 4 mM (inactive)
17,Cc1occc1C(=O)Nc1nnc(C2CCCCC2)s1,> 4 mM (inactive)
18,CC(C)CCCC(C)C1CCC2C3C[C@@H](O)[C@@]4(O)C[C@@H](O)CC[C@]4(C)C3CC[C@]12C (stereo partly specified),> 4 mM (inactive)
19,NC(=O)CSc1nnc(-c2cccnc2)o1,> 4 mM (inactive)
20,CCc1sc(C(=O)NC)cc1Br,> 4 mM (inactive)
21,OC1CCN(Cc2ccc[nH]2)CC1,> 4 mM (inactive)
22,CNc1nc(SC)nc(N2CCOCC2)n1,> 4 mM (inactive)
23,O=C(Nc1cnccn1)c1cccc(C(F)(F)F)c1,> 4 mM (inactive)
24,CC(=O)NC(c1ccccc1)c1cccnc1 (stereo unspecified),> 4 mM (inactive)

row,SMILES,Kd
1,Cc1c(C(=O)Nc2ccccc2)sc(N)c1C(N)=O,> 4 mM (inactive)
2,CCOC(=O)c1cc(C)n(-n2cnnc2)c1C,> 4 mM (inactive)
3,COc1cc2c(cc1OC)[C@@H]1C(=O)c3ccc4oc(C(C)C)cc4c3O[C@@H]1CO2,> 4 mM (inactive)
4,Cn1nc(C(C)(C)C)cc1N,> 4 mM (inactive)
5,Cc1cccc(NC(=O)c2ccccc2C(=O)O)c1,> 4 mM (inactive)
6,Cc1nc2ccccc2c(=O)n1CCCn1ccnc1,> 4 mM (inactive)
7,O=C(O)CN(CCCc1ccccc1)CC(=O)O,> 4 mM (inactive)
8,Cc1ccccc1-n1c(N)cc(=O)[nH]c1=S,> 4 mM (inactive)
9,C[C@H](CCC(=O)O)[C@H]1CCC2C3C(CC[C@@]21C)[C@@]1(C)CC[C@@H](O)C[C@H]1C[C@@H]3O (stereo partly specified),> 4 mM (inactive)
10,CC1(C)C(=O)N(O)C(C)(C)C(=O)N1O,> 4 mM (inactive)
11,O=C(Nc1ccc(N2CCCC2=O)cc1)c1cccc(F)c1,> 4 mM (inactive)
12,O=C(O)c1c[nH]c2ccccc12,> 4 mM (inactive)
13,O=C1CNC(=O)/C1=C/c1ccc(O)cc1,> 4 mM (inactive)
14,CC(=O)OCC(=O)[C@@]1(O)CCC2C3CC[C@@H]4C[C@H](O)CC[C@]4(C)C3C(=O)C[C@@]21C (stereo partly specified),> 4 mM (inactive)
15,CC1(C(=O)O)CC2C=CC1C2 (stereo unspecified),> 4 mM (inactive)
16,CN1CCN(c2ccc(N)cc2)CC1,> 4 mM (inactive)
17,Cc1cc(O)cc(O)c1C(=O)O,> 4 mM (inactive)
18,Cn1nnc2cc(CO)ccc21,> 4 mM (inactive)
19,Nc1ncc2[nH]cnc2n1,> 4 mM (inactive)
20,Cc1cc(C(=O)NC2=NCCS2)cs1,> 4 mM (inactive)
21,Cc1nnc2n(c1=O)N=C(c1ccccc1)CS2,> 4 mM (inactive)
22,CC(=O)Nc1ccc(-c2ccc3nncn3n2)cc1,> 4 mM (inactive)
23,COc1ccc2c3c([nH]c2c1)C(C)=NCC3,> 4 mM (inactive)
24,CCc1ccccc1NC(=O)c1ccoc1C,> 4 mM (inactive)

row,SMILES,Kd
1,Nc1nc2n(c1C(=O)c1ccccc1)CCC2,> 4 mM (inactive)
2,OCc1cccs1,> 4 mM (inactive)
3,Cc1nc2nc(Cc3ccccc3)nn2c(C)c1Cl,> 4 mM (inactive)
4,CSc1nnc2ccc(-c3cccnc3)nn12,> 4 mM (inactive)
5,NC[C@H]1O[C@H](O[C@H]2[C@H](O)[C@@H](O[C@H]3O[C@H](CO)[C@@H](O)[C@H](N)[C@H]3O)[C@H](N)C[C@@H]2N)[C@H](N)[C@@H](O)[C@@H]1O,> 4 mM (inactive)
6,Fc1ccc(N2CCNCC2)cc1,> 4 mM (inactive)
7,COc1cc2c(cc1OC)Cc1cc(OC)c(OC)cc1Cc1cc(OC)c(OC)cc1C2,> 4 mM (inactive)
8,CN1C(=O)CC[C@H]1c1cccnc1,> 4 mM (inactive)
9,CSc1nc2[nH]ncc2c(=O)[nH]1,> 4 mM (inactive)
10,Nc1ccncc1,> 4 mM (inactive)
11,CCn1c(-c2ccccc2)n[nH]c1=S,> 4 mM (inactive)
12,COc1cc([C@@H]2c3cc4c(cc3C(OC3O[C@@H]5COC(C)O[C@H]5[C@H](O)[C@H]3O)C3COC(=O)[C@@H]32)OCO4)cc(OC)c1O (stereo partly specified),> 4 mM (inactive)
13,Oc1ccc(-n2cncn2)cc1,> 4 mM (inactive)
14,CC(=O)NCC1OCCc2ccccc21 (stereo unspecified),> 4 mM (inactive)
15,O=C(Cc1cccs1)Nc1ccccn1,> 4 mM (inactive)
16,CCc1noc(C)c1C(=O)N1CCOCC1,> 4 mM (inactive)
17,Cc1c(N=Cc2ccc[nH]2)c(=O)n(-c2ccccc2)n1C,> 4 mM (inactive)
18,NC(=O)c1ccc(N2CCCCC2)c(N)c1,> 4 mM (inactive)
19,CSc1nc2nccc(N)n2n1,> 4 mM (inactive)
20,Cc1cc(=O)n2[nH]cnc2n1,> 4 mM (inactive)
21,CCOC(=O)c1ccc(F)c(F)c1,> 4 mM (inactive)
22,CC(C)[C@@H]1CC[C@@H](C)C[C@H]1O,> 4 mM (inactive)
23,Cn1nc(C(=O)Nc2cccnc2)cc1Cl,> 4 mM (inactive)
24,N#Cc1cn(CC(=O)N2CCCC2)c2ccccc12,> 4 mM (inactive)

row,SMILES,Kd
1,CNC(=S)Nc1ccc2c(c1)OCO2,> 4 mM (inactive)
2,OC12CC3CC(CC(C3)C1)C2,> 4 mM (inactive)
3,Cc1ccc(-c2c(C)n([O-])c3c([n+]2=O)CCCC3)o1,> 4 mM (inactive)
4,O=C1C(=O)N(CN2CCN(CCO)CC2)c2ccccc21,> 4 mM (inactive)
5,CSc1ccc(S(=O)(=O)N2CCCC2)cc1,> 4 mM (inactive)
6,Nc1nc(-c2ccc(O)cc2)cs1,> 4 mM (inactive)
7,c1ccc(-n2nnnc2-n2cnc3ccccc32)cc1,> 4 mM (inactive)
8,O=C(Nc1nc2ccccc2s1)c1ccc(=O)[nH]n1,> 4 mM (inactive)
9,O=C(c1cccc(C(F)(F)F)c1)N1CCCC1,> 4 mM (inactive)
10,O=C(c1ccccc1)N1CCOCC1,> 4 mM (inactive)
11,CCOC(=O)C1CCN(c2ccc(C#N)cc2)CC1,> 4 mM (inactive)
12,Nc1ccccc1C(=O)N1CCNC(=O)C1,> 4 mM (inactive)
13,O=C(O)CN1CCNCC1,> 4 mM (inactive)
14,C=C(C)[C@H]1Cc2c(ccc3c2O[C@@H]2COc4cc(OC)c(OC)cc4[C@@H]2C3=O)O1,> 4 mM (inactive)
15,COc1ccccc1/C=C/CN1CCOCC1,> 4 mM (inactive)
16,COC(=O)C[C@H]1C2(C)CC34OC5(C)O[C@@]6([C@H](OC(C)=O)C(OC(C)=O)[C@]7(C)C(/C(=C(/O)C(C)C)C(=O)O[C@H]7c7ccoc7)[C@@]6(O5)[C@H](OC(C)=O)[C@@]3(O)C2OC(=O)C(C)C)[C@]14C (stereo partly specified),> 4 mM (inactive)
17,O=[N+]([O-])c1ccc2c(c1)N([O-])C1(CCCCC1)[N+]2=O,> 4 mM (inactive)
18,OCC1=Cc2ccccc2OC1,> 4 mM (inactive)
19,C=C(C)C1Cc2c(ccc(C(=O)O)c2O)O1 (stereo unspecified),> 4 mM (inactive)
20,Cc1cccc(N2C(=O)CCC2=O)n1,> 4 mM (inactive)
21,Cc1ccc2cc(C(=O)O)ccc2n1,> 4 mM (inactive)
22,CCN(CC)c1nc2n(c(=O)n1)CCO2,> 4 mM (inactive)
23,O=C(c1ccccc1)N1CCNCC1,> 4 mM (inactive)
24,COc1ccc(C2(C)CC(=O)NC2=O)cc1 (stereo unspecified),> 4 mM (inactive)

row,SMILES,Kd
1,N#CC(O[C@@H]1O[C@H](CO[C@@H]2O[C@H](CO)[C@@H](O)[C@H](O)[C@H]2O)[C@@H](O)[C@H](O)[C@H]1O)c1ccccc1 (stereo partly specified),> 4 mM (inactive)
2,Cc1ccc(-c2nc(-c3cccnc3)no2)c(C)c1,> 4 mM (inactive)
3,CC(=O)c1ccc(-n2ccnc2)cc1,> 4 mM (inactive)
4,Cn1c(SCc2ccon2)nc2ccccc2c1=O,> 4 mM (inactive)
5,CCC(C)C(=O)O[C@H]1[C@H](O)C2C(CN3CC(C)CCC3[C@@]2(C)O)C2C[C@]34O[C@]5(O)C(OC(=O)C(C)(O)C(C)O)CC[C@@]3(C)C5C(OC(C)=O)[C@@H](OC(C)=O)C4[C@@]21O (stereo partly specified),> 4 mM (inactive)
6,C[C@H]1C(=O)CCC2[C@]3(C)CC[C@@]4(C)C5CC(C)(C)CC[C@]5(C)CC[C@]4(C)C3CC[C@@]21C (stereo partly specified),> 4 mM (inactive)
7,O=C(O)c1cccc2nsnc12,> 4 mM (inactive)
8,Cc1ccc(SCc2nc(-c3cccnc3)no2)cc1,> 4 mM (inactive)
9,Cc1occc1C(=O)Nc1nccs1,> 4 mM (inactive)
10,CS(=O)(=O)N1CCN(C(=O)c2ccccc2F)CC1,> 4 mM (inactive)
11,Cc1cc(C)n(-c2nc(N)cc(=O)[nH]2)n1,> 4 mM (inactive)
12,CC(=O)c1cccc(N=C2NC(=O)CS2)c1,> 4 mM (inactive)
13,Cc1ccc(C)c(C(=O)NCc2ccncc2)c1,> 4 mM (inactive)
14,C[C@H]1[C@H](C)CC[C@]2(CO)CC[C@]3(C)C(=CCC4[C@@]5(C)CC[C@H](O)C(C)(C)C5CC[C@]43C)[C@H]12 (stereo partly specified),> 4 mM (inactive)
15,CN1CCN(C(=O)/C=C\C(=O)O)CC1,> 4 mM (inactive)
16,COC1=CC(=O)C=C(OC)C1=O,> 4 mM (inactive)
17,O=C(O)c1cccc(O)c1O,> 4 mM (inactive)
18,CSc1ccccc1NC(=O)c1cnccn1,> 4 mM (inactive)
19,COc1cccc(-c2csc(NC(C)=O)n2)c1,> 4 mM (inactive)
20,COc1ncccc1N,> 4 mM (inactive)
